Measurements from patent US20100303790A1, “USE OF BILIVERDIN REDUCTASE (BVR) AND BVR PEPTIDE FRAGMENTS TO TREAT CORONARY DISORDERS” (UNIVERSITY OF ROCHESTER, priority 2009, published 2010).
Entries after “also recorded” stand apart in the source; their conditions may differ.

Columns and labels:
[1] = tested on: cardiomyocytes in the intact heart; experiment: Langendorff perfused heart: apoptosis (TUNEL, genomic DNA fragmentation); format: in vivo, rat; settings: for apoptosis in cardiomyocytes of the perfused heart (TUNEL): 0.1 μM ISO, peptides 25 μM together with ISO
Source text: Analysis of Apoptosis: The terminal deoxyribonucleotide transferase-mediated dUTP nick-end labeling (TUNEL) assay was used to detect in situ DNA fragmentation, using the In Situ Cell Death Detection Kit (Roche) as described previously (Ding et al., “Functional Role of Phosphodiesterase 3 in Cardiomyocyte Apoptosis: Implication in Heart Failure,” Circulation 111:2469-2476 (2005), which are hereby incorporated by reference in their entirety). In addition, the cells were stained for cardiomyocyte-specific sarcomeric α-actinin with the antibody EF-53 to distinguish cardiomyocytes from contaminating fibroblasts; and only EF-53 positive cells were counted. Three independent experiments were performed and an average of 1,000 EF-53 positive cells from random fields were analyzed.
DNA Electrophoresis: Total cellular DNA was isolated from untreated and treated cells by lysis in 10 mM Tris-HCl, pH 7.8; 1 mM, EDTA, 10 mM NaCl, 1% (w/v) SDS and 1 mg/ml proteinase K at 60° C. for 2 hours. The lysate was extracted twice each with phenol-choloroform (1:1, v/v) and chloroform, followed by precipitation with ethanol. The precipitate was collected by centrifugation, washed once in 70% ethanol, and resuspended in TE containing 1 mg/ml RNase at 37° C. for 30 min. DNA was resolved by electrophoresis in 2.0% agarose gels containing ethidium bromide.
In Vivo Experimental Langendorff Model: Male Sprague-Dawley rats weighing 250-300 g (Charles River, Boston, Mass.) were used in this study; the protocol is based on that described by Tompkins et al., “Mitochondrial Dysfunction in Cardiac Ischemia-Reperfusion Injury: ROS From Complex I, Without Inhibition,” Biochim Biophys Acta 1762:223-231 (2006), which is hereby incorporated by reference in its entirety, with minor modification. The rats were fed a standard rat chow and had water ad libitum. All experiments were approved by the University of Rochester Institutional Animal Care and Use Committee. Rats were given two subcutaneous injections of isoproterenol (ISO) (0.01 mg/kg), 6 hours apart, then anesthetized with freshly prepared Avertin (2,2,2-tribromoethanol, […] injected intraperitoneally), and treated with heparin (5000 U/kg), i.p., to protect the heart against microthrombi. The aorta was cannulated in situ with a 22-gauge needle filled with warm Krebs-Henseleit (KH) buffer. The heart was rapidly transferred (<10 s.) to a perfusion apparatus, and retrograde (Langendorff) perfusion begun with 37° C. KH buffer gassed with 95% O2 plus 5% CO2, in constant flow mode (12 ml/min). […] Hemodynamics and heart rate were recorded by inserting a water-filled balloon connected to a transducer (Radnoti LLC, model no. 159904B) into the left ventricle. […]

isolated perfused heart = experiment: Langendorff perfused heart: left ventricle contractile function and heart rate; format: in vivo, rat; settings: for left ventricle contractile function (systolic pressure, developed pressure, dp/dt, -dp/dt): peptide 25 μM with 0.1 μM isoproterenol, vs isoproterenol alone
Source text: In Vivo Experimental Langendorff Model: Male Sprague-Dawley rats weighing 250-300 g (Charles River, Boston, Mass.) were used in this study; the protocol is based on that described by Tompkins et al., “Mitochondrial Dysfunction in Cardiac Ischemia-Reperfusion Injury: ROS From Complex I, Without Inhibition,” Biochim Biophys Acta 1762:223-231 (2006), which is hereby incorporated by reference in its entirety, with minor modification. The rats were fed a standard rat chow and had water ad libitum. All experiments were approved by the University of Rochester Institutional Animal Care and Use Committee. Rats were given two subcutaneous injections of isoproterenol (ISO) (0.01 mg/kg), 6 hours apart, then anesthetized with freshly prepared Avertin (2,2,2-tribromoethanol, […] injected intraperitoneally), and treated with heparin (5000 U/kg), i.p., to protect the heart against microthrombi. The aorta was cannulated in situ with a 22-gauge needle filled with warm Krebs-Henseleit (KH) buffer. The heart was rapidly transferred (<10 s.) to a perfusion apparatus, and retrograde (Langendorff) perfusion begun with 37° C. KH buffer gassed with 95% O2 plus 5% CO2, in constant flow mode (12 ml/min). Perfusion was performed using 0.1 μM ISO or KH buffer as a control; the hBVR-derived peptides KKRILHC^281 (25 μM) or KYCCSRK^296 (25 μM) were included in perfusion medium with or without ISO. Hemodynamics and heart rate were recorded by inserting a water-filled balloon connected to a transducer (Radnoti LLC, model no. 159904B) into the left ventricle. The transducer was connected to a data acquisition system (DATAQ Instrument, Akron Ohio, Model: DI-205). At the end of each experiment, the heart was cut into 5 μm sections for TUNEL study or homogenized for western blots.
The effect of peptides on the integrity of the heart was also examined in the perfusion system, by measuring left ventricle contractile function in the presence of isoproterenol as a function of time.

BVR = target: T1, BVR (Rattus norvegicus, UniProt P46844); experiment: Langendorff perfused heart: BVR activity (biliverdin to bilirubin, pH 6.7); format: in vivo
T1 construct: Cardiomyocytes and heart tissue samples were lysed in buffer containing 100 mM sodium phosphate pH 7.4; from tissue; host or cells: isolated Langendorff-perfused rat heart, lysate
T1 sequence (P46844 3-295): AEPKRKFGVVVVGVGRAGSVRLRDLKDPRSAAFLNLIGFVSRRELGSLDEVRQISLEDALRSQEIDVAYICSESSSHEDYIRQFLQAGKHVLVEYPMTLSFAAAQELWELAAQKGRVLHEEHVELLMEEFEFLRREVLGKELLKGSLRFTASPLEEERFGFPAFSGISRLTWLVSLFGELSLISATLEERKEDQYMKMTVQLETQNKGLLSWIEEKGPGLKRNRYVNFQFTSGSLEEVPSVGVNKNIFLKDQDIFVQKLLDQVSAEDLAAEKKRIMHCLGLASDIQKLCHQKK
Source text: In Vivo Experimental Langendorff Model: Male Sprague-Dawley rats weighing 250-300 g (Charles River, Boston, Mass.) were used in this study; the protocol is based on that described by Tompkins et al., “Mitochondrial Dysfunction in Cardiac Ischemia-Reperfusion Injury: ROS From Complex I, Without Inhibition,” Biochim Biophys Acta 1762:223-231 (2006), which is hereby incorporated by reference in its entirety, with minor modification. The rats were fed a standard rat chow and had water ad libitum. All experiments were approved by the University of Rochester Institutional Animal Care and Use Committee. Rats were given two subcutaneous injections of isoproterenol (ISO) (0.01 mg/kg), 6 hours apart, then anesthetized with freshly prepared Avertin (2,2,2-tribromoethanol, […] injected intraperitoneally), and treated with heparin (5000 U/kg), i.p., to protect the heart against microthrombi. The aorta was cannulated in situ with a 22-gauge needle filled with warm Krebs-Henseleit (KH) buffer. The heart was rapidly transferred (<10 s.) to a perfusion apparatus, and retrograde (Langendorff) perfusion begun with 37° C. […] Hemodynamics and heart rate were recorded by inserting a water-filled balloon connected to a transducer (Radnoti LLC, model no. 159904B) into the left ventricle. […]
Measurement of BVR Activity: Cardiomyocytes and heart tissue samples were lysed in buffer containing 100 mM sodium phosphate pH 7.4, 1% Nonidet-P-40, 10% glycerol, 0.2 mM dithiothoeitol, 10 mM NaF, protease inhibitor mixture (10 μg/ml aprotinin, 10 μg/ml leupeptin, 10 μg/ml pepstatin, and 0.1 mM phenylmethylsulfonyl fluoride). BVR activity was measured at pH 6.7 as described previously (Huang et al., “Detection of 10 Variants of Biliverdin Reductase in Rat Liver by Two-Dimensional Gel Electrophoresis,”J Biol Chem 264:7844-7849 (1989), which is hereby incorporated by reference in its entirety). The rate of conversion of biliverdin to bilirubin was determined as the increase in absorbance at 450 nm at 25° C. Specific activity is expressed as nanomoles of bilirubin/min/mg of protein. […]

[2] = peptide 25 μM with isoproterenol

Compound | apoptosis in cardiomyocytes of the perfused heart (TUNEL) [1] | heart rate, left ventricular systolic pressure, development pressure, dp/dt, -dp/dt over the course of the experiment (isolated perfused heart; 0.1 μM isoproterenol perfusion) | fragmentation of genomic DNA from perfused heart ([1]; peptide 25 μM with ISO) | left ventricle contractile function (systolic pressure, developed pressure, dp/dt, -dp/dt) (isolated perfused heart) | change in heart rate observed with isoproterenol alone (isolated perfused heart; [2]) | time after initiating perfusion by which the increased rate of decline was observed (isolated perfused heart; [2]) [min] | BVR activity (BVR; peptide 25 μM, whether ISO was present or not) | BVR activity (BVR; peptide 25 μM alone) | BVR reductase activity (BVR; peptide 25 μM and 0.1 μM ISO)
CC(C)NCC(O)c1ccc(O)c(O)c1 (stereo not shown) [isoproterenol] | increased apoptosis | declined |  |  |  |  |  |  | 
KKRILHC (biliverdin reductase peptide) [KKRILHC^281] | increase in apoptosis; also recorded: significant increases in apoptosis |  | fragmentation is detectable | the rate of decline was increased; also recorded: significantly diminished cardiac function | Neither peptide affected the change in heart rate | ≤ 30 | blocked the activity of BVR |  | 
KYCCSRK (biliverdin reductase peptide) [KYCCSRK^296] | decreased apoptosis; also recorded: nearly complete reduction in apoptosis |  |  | slowed the decrease in contractile function; also recorded: improved cardiac function | Neither peptide affected the change in heart rate |  |  | increased BVR activity | significant activation
